Experimental data from publication PMC5896744 (The Biochemical journal, 2017).

What was measured:
Test in all cases: SPR solution competition
Type in all cases: binding
PKA hRIα CNB-B (234–381) [1] = target: PKA hRIα CNB-B (234–381) (Homo sapiens, UniProt P10644, G316R/V315L)
PKA hRIα CNB-B (234–381) [2] = target: PKA hRIα CNB-B (234–381) (Homo sapiens, UniProt P10644, A336T)
PKA hRIα CNB-A (115–274) [3] = target: PKA hRIα CNB-A (115–274) (Homo sapiens, UniProt P10644, A212T)
PKA hRIα CNB-B (234–381) [4] = target: PKA hRIα CNB-B (234–381) (Homo sapiens, UniProt P10644, G316R)
PKA hRIα CNB-A (115–274) [5] = target: PKA hRIα CNB-A (115–274) (Homo sapiens, UniProt P10644, A212T/T192R)
PKA hRIα CNB-B (234–381) [6] = target: PKA hRIα CNB-B (234–381) (Homo sapiens, UniProt P10644, A336T/G316R/V315L)
PKA hRIα CNB-B (234–381) [7] = target: PKA hRIα CNB-B (234–381) (Homo sapiens, UniProt P10644, A336T/G316R)
PKA hRIα CNB-B (234–381) [8] = target: PKA hRIα CNB-B (234–381) (Homo sapiens, UniProt P10644, V315L)
PKA hRIα CNB-A (115–274) [9] = target: PKA hRIα CNB-A (115–274) (Homo sapiens, UniProt P10644, T192R)
PKA hRIα CNB-B (234–381) [10] = target: PKA hRIα CNB-B (234–381) (Homo sapiens, UniProt P10644)
PKA hRIα CNB-A (115–274) [11] = target: PKA hRIα CNB-A (115–274) (Homo sapiens, UniProt P10644)

EC50 (PKA hRIα CNB-B (234–381) [1]) [nM] | EC50 (PKA hRIα CNB-B (234–381) [2]) [nM] | EC50 (PKA hRIα CNB-A (115–274) [3]) [nM] | EC50 (PKA hRIα CNB-B (234–381) [4]) [nM] | EC50 (PKA hRIα CNB-A (115–274) [5]) [nM] | EC50 (PKA hRIα CNB-B (234–381) [6]) [nM] | EC50 (PKA hRIα CNB-B (234–381) [7]) [nM] | EC50 (PKA hRIα CNB-B (234–381) [8]) [nM] | EC50 (PKA hRIα CNB-A (115–274) [9]) [nM] | EC50 (PKA hRIα CNB-B (234–381) [10]) [nM] | EC50 (PKA hRIα CNB-A (115–274) [11]) [nM] | SMILES
66 ± 2 | 2 ± 0.1 | 83 ± 33 | 98 ± 41 | 24 ± 5 | 0.6 ± 0.3 | 0.4 ± 0.1 | 678 ± 100 | 1530 ± 53 | – | – | Nc1nc2c(ncn2[C@@H]2O[C@@H]3COP(=O)(O)O[C@H]3[C@H]2O)c(=O)[nH]1 [cGMP]
– | – | – | 25 ± 9 | – | – | – | – | 156 ± 5 | 114 ± 51 | 273 ± 16 | O=c1[nH]cnc2c1ncn2[C@@H]1O[C@@H]2COP(=O)(O)O[C@H]2[C@H]1O [cIMP]
